Source: publication PMC8388125, “Kinetic and Structural Characterization of the Self-Labeling Protein Tags HaloTag7, SNAP-tag, and CLIP-tag” (Biochemistry, 2021)
Changes are numbered by the printed parent chain. pKd: −log10 of the molar value. Values joined by “and” are separate entries in the source; they are usually repeats but may differ in a detail not shown here. Equal values may be shown once.

Experiments:
[1] = target: T1, SNAP-tag (SNAP) (Homo sapiens, UniProt P16455, A127T/A154D/C150Q/C62A/G131K/G132T/G153L/K125A/K32I/L33F/M134L/N157G/Q115S/Q116H/R128A/R135S/S151G/S152D/S159E); test: SNAP labeling kinetics via microplate reader (FP over time); type: biochemical; conditions: SNAP, plate reader
T1 construct: made in house; host or cells: E. coli BL21(DE3)-pLysS
T1 sequence (P16455 1-182 K32I/L33F/C62A/Q115S/Q116H/K125A/A127T/R128A/G131K/G132T/M134L/R135S/C150Q/S151G/S152D/G153L/A154D/N157G/S159E limits assumed): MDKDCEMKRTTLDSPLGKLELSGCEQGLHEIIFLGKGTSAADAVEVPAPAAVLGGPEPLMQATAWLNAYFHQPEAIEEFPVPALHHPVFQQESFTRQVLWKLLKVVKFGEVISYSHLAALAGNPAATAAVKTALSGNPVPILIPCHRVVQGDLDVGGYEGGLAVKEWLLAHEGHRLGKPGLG
Protocol: (§1) Labeling kinetics of SNAP and CLIP substrates were measured by recording FP over time using a microplate reader in a manner analogous to that of HT7 labeling kinetics described above with the following changes. The fluorescent substrate concentration was fixed to 20 nM, and protein concentrations were varied from 15 to 900 nM. Measurements were performed in SNAP-FP buffer.
(§2) Kinetic data from microplate reader assays were fitted to a simplified kinetic model (eq 13) described by differential eqs 14–16 using DynaFit. The dead time of the measurements and baseline FP value were put in as fixed parameters. Standard deviations (normal distribution verified) and confidence intervals of fitted parameters were estimated with the Monte Carlo method with standard settings (N = 1000, 5% worst fits discarded). In the case of BG, CP, and BC kinetics, the substrate concentration was fitted by DynaFit to rule out quantification errors of the BG, CP, or BC fluorophores. Accurate fitting of the concentration was ensured by including conditions under which protein is limiting and no maximum FP value was reached.

[2] = target: T2, HT7^D106A (Rhodococcus sp., UniProt P59336, A155T/A167V/A224E/C128F/C176G/D106A/D78G/E160K/E257K/G292T/H272N/K175M/K195N/L47V/L88M/N227D/P291S/S2A/S58T/T264A/V172T/Y273L/Y87F); test: Affinity of HT7^D106A for CA substrates by fluorescence polarization; type: binding
T2 construct: made in house; host or cells: E. coli BL21(DE3)-pLysS
T2 sequence (P59336 other isoform, or with tags, fused parts or gaps with the stated changes): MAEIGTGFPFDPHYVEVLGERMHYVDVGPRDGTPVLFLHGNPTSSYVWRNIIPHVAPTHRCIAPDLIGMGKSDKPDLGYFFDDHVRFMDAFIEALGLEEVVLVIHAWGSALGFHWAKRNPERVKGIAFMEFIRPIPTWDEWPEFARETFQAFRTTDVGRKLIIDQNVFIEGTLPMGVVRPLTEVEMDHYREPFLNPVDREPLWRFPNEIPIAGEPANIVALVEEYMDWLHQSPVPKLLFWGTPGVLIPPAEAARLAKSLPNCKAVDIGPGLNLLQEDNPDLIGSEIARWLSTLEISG
Protocol: Binding affinities of HT7^D106A or HOB^D106A for chloroalkane (CA) substrates were determined by fluorescence polarization (FP, eq 1) measurements using a microplate reader (Spark20M, Tecan Group AG, Männedorf, Switzerland). The fluorescent substrates (10 nM) were titrated against different protein concentrations (0–250 μM) in activity buffer supplemented with 0.5 g/L bovine serum albumin (BSA). Assays were performed in black low-volume nonbinding 384-well plates (Corning Inc., Corning, NY) with a final volume of 20 μL. Obtained FP values were averaged and fitted to a single-site binding model (eq 2) to estimate Kd values for each fluorescent substrate. The FP value of each dye fully reacted with the native HT7 was used to improve fitting of the upper plateau of the curves by adding an extra data point at a protein concentration of 0.1 M. [drawing 1] 1 where FP is the fluorescence polarization, I∥ is the fluorescence intensity parallel to the excitation light polarization, I⊥ is the fluorescence intensity perpendicular to the excitation light polarization, and G is the grating factor (G = I∥/I⊥). [drawing 2] 2 where FPmin is the fluorescence polarization of the free fluorophore (lower plateau), FPmax is the maximal fluorescence polarization of fully bound fluorophore (upper plateau), Kd is the dissociation constant, and [protein] is the protein concentration.
Free binding energies were calculated from Kd values according to eq 4: [drawing 4] 4 where ΔG is the free binding energy, R is the universal gas constant, T is the temperature, and Kd is the dissociation constant.

[3] = target: T3, HaloTag7 (HT7) (Rhodococcus sp., UniProt P59336, A155T/A167V/A224E/C128F/C176G/D78G/E160K/E257K/G292T/H272N/K175M/K195N/L47V/L88M/N227D/P291S/S2A/S58T/T264A/V172T/Y273L/Y87F); test: HT7 labeling kinetics via stopped flow (fluorescence anisotropy); type: biochemical
T3 construct: made in house; host or cells: E. coli BL21(DE3)-pLysS
T3 sequence (P59336 other isoform, or with tags, fused parts or gaps with the stated changes): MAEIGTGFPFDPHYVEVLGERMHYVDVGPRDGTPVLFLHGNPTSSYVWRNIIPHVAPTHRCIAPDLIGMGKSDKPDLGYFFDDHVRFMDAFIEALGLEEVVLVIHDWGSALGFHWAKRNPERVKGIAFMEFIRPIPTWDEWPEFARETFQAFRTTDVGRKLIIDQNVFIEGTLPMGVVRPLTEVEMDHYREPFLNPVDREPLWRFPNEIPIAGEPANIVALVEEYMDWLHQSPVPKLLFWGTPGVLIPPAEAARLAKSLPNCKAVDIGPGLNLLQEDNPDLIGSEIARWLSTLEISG
Protocol: Labeling kinetics of HT7 with CA-TMR, CA-JF549, CA-CPY, CA-LIVE580, and CA-JF669 and labeling kinetics of HOB with CA-TMR were measured by recording fluorescence anisotropy changes over time using a BioLogic SFM-400 stopped-flow instrument (BioLogic Science Instruments, Claix, France) in a single-mixing configuration at 37 °C. HT7 protein and substrates in activity buffer were mixed in a 1:1 stoichiometry to reach a recordable speed for these fast reactions and to increase the information content of the traces. Concentrations were varied from 0.125 to 1 μM. The anisotropy of the free substrate was measured to obtain a baseline.
(§3) Kinetic stopped-flow data were preprocessed using a custom R script.[36],[37] Recorded pretrigger time points were removed, and time points were adjusted to start at time zero. Values from replicates were averaged. The anisotropy of the free dye was calculated by averaging anisotropy values of the baseline measurements. Preprocessed data were fitted to a kinetic model (eqs 5 and 6) described by differential eqs 7–10 using the DynaFit software.[38] The anisotropy of the free dye and the mixing delay of the stopped-flow machine were set as fixed offset and delay parameters in DynaFit. It was assumed that the protein substrate complex and the reacted product are contributing equally to the anisotropy signal. […] Standard deviations (normal distribution verified) and confidence intervals of fitted parameters were estimated with the Monte Carlo method[39] with standard settings (N = 1000, 5% worst fits discarded). In the case of SNAP kinetics with BG-TMR, the substrate concentration was fitted by DynaFit to rule out quantification errors of the BG-quenched fluorophore. Accurate fitting of the concentration was ensured by including conditions in which protein is limiting and no maximum FP value was reached.

[4] = target: T4, SNAP^C145A (Homo sapiens, UniProt P16455, A127T/A154D/C145A/C150Q/C62A/G131K/G132T/G153L/K125A/K32I/L33F/M134L/N157G/Q115S/Q116H/R128A/R135S/S151G/S152D/S159E); test: Affinity of SNAP^C145A for nonfluorescent substrates via FP competition assay against CP-TMR; type: binding; conditions: for pKd: FP competition against CP-TMR, room temperature
T4 construct: made in house; host or cells: E. coli BL21(DE3)-pLysS
T4 sequence (P16455 1-182 K32I/L33F/C62A/Q115S/Q116H/K125A/A127T/R128A/G131K/G132T/M134L/R135S/C145A/C150Q/S151G/S152D/G153L/A154D/N157G/S159E limits assumed): T1 sequence (P16455 1-182 K32I/L33F/C62A/Q115S/Q116H/K125A/A127T/R128A/G131K/G132T/M134L/R135S/C150Q/S151G/S152D/G153L/A154D/N157G/S159E limits assumed) with C145A
Protocol: Binding affinities of SNAP^C145A for BG, CP, BG-Ac, CP-Ac, and BC-Ac were obtained as previously described for HT7 by titrating 5 μM protein and 50 nM CP-TMR against nonfluorescent substrate concentrations ranging from 150 nM to 1.5 mM. Experimental conditions and data analysis were identical despite the fact that 1 mM DTT was added to the buffer and the assay was performed at room temperature.

[5] = target: T1, SNAP-tag (SNAP); test: SNAP competitive labeling kinetics against BG-Alexa488; type: biochemical; conditions: nonfluorescent substrates, competition with BG-Alexa488
Protocol: Competitive kinetics were measured by recording FP over time using a microplate reader in a manner analogous to that for HT7 competition kinetics described above using 100 nM BG-Alexa488 as the fluorescent substrate in SNAP-FP buffer.
Data were fitted to a simplified kinetic competition model (eqs 19 and 20) described by differential eqs 21–25 using DynaFit. The dead time of the measurements and baseline FP value were put in as fixed parameters. Standard deviations (normal distribution verified) and confidence intervals of fitted parameters were estimated with the Monte Carlo method with standard settings (N = 1000, 5% worst fits discarded). [drawing 19] 19 [drawing 20] 20 where P is the SLP protein, S is the fluorescent SLP substrate, I is the nonfluorescent SLP substrate (inhibitor), PS is the protein–fluorescent substrate conjugate, and PI is the protein–nonfluorescent substrate conjugate. [drawing 21] 21 [drawing 22] 22 [drawing 23] 23 [drawing 24] 24 [drawing 25] 25

[6] = target: T5, hAGT (human O^6-alkylguanine-DNA alkyltransferase) (Homo sapiens, UniProt P16455); test: hAGT labeling kinetics via microplate reader (FP over time); type: biochemical
T5 construct: StrepTag-II (N); enterokinase cleavage site (N); His10 (C); made in house; host or cells: E. coli BL21(DE3)-pLysS
T5 sequence (P16455 1-207): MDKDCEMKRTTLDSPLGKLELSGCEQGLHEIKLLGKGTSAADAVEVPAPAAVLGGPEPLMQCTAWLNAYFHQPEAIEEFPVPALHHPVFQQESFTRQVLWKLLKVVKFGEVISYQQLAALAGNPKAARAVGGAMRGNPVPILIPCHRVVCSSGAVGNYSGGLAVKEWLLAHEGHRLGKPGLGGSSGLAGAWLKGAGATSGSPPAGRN
Protocol: as §1, §2

[7] = target: T1, SNAP-tag (SNAP); test: SNAP labeling kinetics via stopped flow (fluorescence anisotropy); type: biochemical; conditions: model 2
Protocol: Labeling kinetics of SNAP with BG-TMR were measured via stopped-flow in a manner analogous to that for HT7 kinetics described above; however, the final substrate concentration was fixed at 2 μM, and the protein concentration was varied from 1.875 to 50 μM. The activity buffer was supplemented with 1 mM DTT.
as §3

[8] = target: T6, CLIP-tag (CLIP) (Homo sapiens, UniProt P16455, A121V/A127T/A154D/C150Q/C62A/G131N/G132T/G153S/K125A/K32I/L33F/M134L/M60I/N157P/Q115S/Q116H/R128A/R135D/S151G/S152D/S159L/Y114E); test: CLIP labeling kinetics via microplate reader (FP over time); type: biochemical; conditions: CLIP, plate reader, kinetic model 1
T6 construct: made in house; host or cells: E. coli BL21(DE3)-pLysS
T6 sequence (P16455 1-182 K32I/L33F/M60I/C62A/Y114E/Q115S/Q116H/A121V/K125A/A127T/R128A/G131N/G132T/M134L/R135D/C150Q/S151G/S152D/G153S/A154D/N157P/S159L limits assumed): T1 sequence (P16455 1-182 K32I/L33F/C62A/Q115S/Q116H/K125A/A127T/R128A/G131K/G132T/M134L/R135S/C150Q/S151G/S152D/G153L/A154D/N157G/S159E limits assumed) with M60I, Y114E, A121V, K131N, S135D, L153S, G157P, E159L
Protocol: as §1, §2

## CN(C)c1ccc2c(c1)C(C)(C)C1=CC(=[N+](C)C)C=CC1=C2c1cc(C(=O)NCc2ccc(COc3cc(Cl)nc(N)n3)cc2)ccc1C(=O)[O-] [CP-CPY]
[1]; third kinetic model with slow aging event (*)
  kapp (value ± standard deviation): (1.59 ± 0.01) × 10^4 ^* M^–1 s^–1

## CN(C)c1ccc2c(-c3ccc(C(=O)NCCOCCOCCCCCCCl)cc3C(=O)[O-])c3ccc(=[N+](C)C)cc-3oc2c1 [CA-5-TMR]
[2]
  pKd: 4.40

## CN(C)c1ccc2c(c1)C(C)(C)C1=CC(=[N+](C)C)C=CC1=C2c1cc(C(=O)NCc2ccc(COc3nc(N)nc4[nH]cnc34)cc2)ccc1C(=O)[O-] [BG-CPY]
[1]; kinetic model 1
  kapp (value ± standard deviation): (2.17 ± 0.01) × 10^5 M^–1 s^–1

## CN(C)c1ccc2c(c1)C(C)(C)C1=CC(=[N+](C)C)C=CC1=C2c1cc(C(=O)NCCOCCOCCCCCCCl)ccc1C(=O)[O-] [CA-CPY, chloroalkane-PEG-carbopyronine]
[3]
  pKd: 7.34
[3]; HT7, stopped flow, model 2
  k2 (± S.D.): 9.9 s-1 and 9.86 (± 0.73) s-1
  k-1 (± S.D.): 7.60 (± 0.98) s-1
[2]; HT7^D106A
  fold decrease in affinity of the 5-substituted compared to the 6-substituted rhodamine substrate: 22.7 fold

## CN(CCCC(=O)NCCOCCOCCOCCNC(=O)CCCC[C@H]1SC[C@H]2NC(=O)N[C@H]21)c1ccc2c(-c3cc(C(=O)NCCOCCOCCCCCCCl)ccc3C(=O)[O-])c3ccc(=[N+](C)C)cc-3oc2c1 [CA-TMR-biotin]
[3]; HT7
  fold increase in labeling kinetics relative to CA-PEG-biotin: > 500 fold
[3]; HT7, stopped flow, model 2
  k2 (± S.D.): 8.24 (± 0.28) s-1

## C[Si]1(C)C2=CC(=[N+]3CCC3)C=CC2=C(c2c(F)c(C(=O)NCCOCCOCCCCCCCl)c(F)c(F)c2C(=O)[O-])c2ccc(N3CCC3)cc21 [CA-JF669]
[3]; HT7, stopped flow, model 2
  k2 (± S.D.): 6.94 (± 0.47) s-1

## CC(=O)NCc1ccc(COc2nccc(N)n2)cc1 [BC-Ac]
[4]
  times lower affinity than for BG-Ac: 5 times
  pKd: 3.38

## CC(=O)NCc1ccc(COc2cc(Cl)nc(N)n2)cc1 [CP-Ac]
[4]
  pKd: 3.70
[5]
  kapp (value ± standard deviation): (3.45 ± 0.38) × 10^3 M^–1 s^–1

## CN(C)c1ccc2c(-c3cc(C(=O)NCc4ccc(COc5cc(Cl)nc(N)n5)cc4)ccc3C(=O)[O-])c3ccc(=[N+](C)C)cc-3oc2c1 [CP-TMR]
[6]; hAGT vs SNAP
  times slower labeling of hAGT than of SNAP: 20 times
[6]; hAGT, plate reader, model 1
  kapp (value ± standard deviation): (3.13 ± 0.01) × 10^3 M^–1 s^–1
[1]; kinetic model 1
  kapp (value ± standard deviation): (7.69 ± 0.01) × 10^4 M^–1 s^–1
[7]
  fold higher k–1 than BG-TMR: 8.8 fold
  k2 (± S.D.): 1.58 (± 0.04) s-1
  k-1 (± S.D.): 8.96 (± 0.71) s-1
[8]
  kapp (value ± standard deviation): (7.22 ± 0.04) × 10^0 M^–1 s^–1
